Key:
[1] = system: angiogenic stem cells and cell populations in peripheral blood; experiment: oral administration to healthy subjects: cell populations mobilized to peripheral blood; format: in vivo, human; conditions: 5 mg/kg oral for 3 days
Description: Upon oral administration of TUDCA to healthy subjects, angiogenic stem cells and various cell populations, which were mobilized to peripheral blood, were confirmed and differentiation potential into functional endothelial progenitor cells was verified using peripheral blood. 5 mg/kg of TUDCA was orally administered to healthy subjects for 3 days, and the expression of angiogenic stem cell markers was examined.

hindlimb ischemic tissue [2] = experiment: hindlimb ischemia model in GFP bone marrow-transplanted mice, oral TUDCA; format: in vivo, GFP-BMT mice (C57BL/6); conditions: 20 mg/kg oral, GFP-BMT mice
Description: It is known that angiogenic stem cells are mainly present in bone marrow, but they are present in different tissues than bone marrow. In order to confirm whether angiogenic stem cells are derived from bone marrow by TUDCA and involved in vascular repair mechanism, bone marrow was isolated from green fluorescent protein (GFP) mice and transplanted into C57BL/6. Once bone marrow transplantation (BMT) mice are thus prepared, chimeric mice which show green fluorescence only for bone marrow cells are obtained. After preparing hindlimb ischemia animal models using GFP-BMT mice, TUDCA (20 mg/kg) was orally administered to verify vascular repair capability. […] In order to confirm angiogenesis by TUDCA, hindlimb ischemic tissue was removed 14 days after the preparation of the hindlimb ischemia models and subjected to immunofluorescent staining, to verify capillary and arteriole density. […] In order to confirm whether angiogenic stem cells were mobilized by TUDCA from bone marrow to hindlimb ischemic tissue, mobilization capability of angiogenic stem cells was examined by immunofluorescent staining using a bone marrow marker GFP, an angiogenic stem cell marker c-kit, a vascular marker ILB4, into which hindlimb ischemic tissue removed from the hindlimb ischemia models was transplanted 3 days after the preparation. […] In order to examine whether angiogenic stem cells mobilized by TUDCA from bone marrow differentiate into new blood vessels in hindlimb ischemic tissue, vascular differentiation potential of angiogenic stem cells was examined, through immunofluorescent staining and morphological analysis, using a bone marrow marker GFP, a marker of vascular differentiation VEGFR, a vascular marker ILB4, into which hindlimb ischemic tissue removed from the hindlimb ischemia models was transplanted 14 days after the preparation.

[3] = system: CD34+ cells on bone marrow stromal cells; experiment: adhesion and dissociation of CD34+ cells on bone marrow stromal cells (fluorescence microscope count); format: cell-based; conditions: TUDCA 50, 100 μM, incubated 1 hour, compared with the control
Description: When ischemic damage occurs, for vascular repair, a process in which angiogenic stem cells integrated with bone marrow stromal cells are dissociated from bone marrow and transported to ischemic tissue first occurs in the vascular repair mechanism. In order to confirm a change in dissociation of angiogenic stem cells from bone marrow stromal cells by TUDCA, CD34^+ cells stained with CM-DiI (staining red), which were treated with TUDCA (0, 50, 100 μM), were incubated for 1 hour on glass slides in which bone marrow stromal cells were seeded. The number of CD34^+ cells adhered to or dissociated from bone marrow stromal cells was counted by a fluorescence microscope (FIGS. 1a, 1b, and 1c). AMD3100, a CXCR4 antagonist, was used as a positive control.

[4] = system: angiogenic stem cells in peripheral blood; experiment: Hill's assay of cell populations mobilized to peripheral blood; format: in vivo; conditions: oral, mice; concentration and time-dependent
Description: (§1) When TUDCA was orally administered, a variety of cell populations are mobilized to peripheral blood. After orally administering TUDCA to mice, the cell populations were analyzed by Hill's assay. As a result, it was confirmed that the number of angiogenic stem cells increased in TUDCA concentration and time-dependent manner (FIGS. 4a and 4b). In order to confirm side effects caused by mobilization of cell populations associated with immunity and inflammation, other than angiogenic stem cells, upon treatment with TUDCA, the change in the number of leukocytes, lymphocytes, monocytes, and granulocytes in peripheral blood was confirmed by complete blood cell (CBC) count. […] Also, it was confirmed that […] are EPCs by confirming the uptake of acetyl-LDL and FITC-isolectin B4 (FIG. 4d).

angiogenic stem cells [5] = experiment: infiltration capability of angiogenic stem cells; format: cell-based; conditions: 50 μM of TUDCA
Description: (§2) In order to confirm that the treatment with TUDCA involves enhancement of biological activity functions of angiogenic stem cells in addition to enhancement of mobilization and migration capabilities of angiogenic stem cells from bone marrow to peripheral blood and ischemic tissue, angiogenic stem cells were treated with different concentrations (0, 10, 50, 100 μM) of TUDCA. Then, various biological activity functions were evaluated. […] In order to confirm vascular differentiation potential, tube-forming capability was examined.

Akt = Akt activation in CD34+ HSC; format: cell-based
Description: (§3) Meanwhile, in order to clarify the impact of TUDCA on CD34^+ HSC differentiation into the EPC lineage, the EPC colony forming capability of CD34^+ HSCs was examined. As a result, it was confirmed that the EPC colony forming capability was enhanced by TUDCA (FIG. 4e). Further, as Akt activation via PI3-kinase increases differentiation of CD34^+ HSCs into the EPC lineage, it was examined whether TUDCA activates Akt in CD34^+ HSC. As a result, it was confirmed that TUDCA increased Akt phosphorylation, and the exposure to LY294002, a PI3K inhibitor, inhibited TUDCA-mediated CD34^+ HSC differentiation into the EPC lineage (FIG. 4f).

[6] = system: CD34+ hematopoietic stem cells (HSCs); experiment: trans-well assay of cell migration capability; format: cell-based; conditions: TUDCA 0, 10, 50, 100 μM; concentration-dependent
Description: (§4) In order to confirm mobilization capability of angiogenic stem cells, which were dissociated from bone marrow stromal cells, to peripheral blood, CD34^+ hematopoietic stem cells (HSCs) were treated with various concentrations of TUDCA (0, 10, 50, 100 μM), to confirm the cell migration capability by trans-well assay. […] Based on the result, TUDCA (10 mg/kg) was orally administered to C57BL/6 mice, and the number of angiogenic stem cells (CD34^+/Sca1^+) in peripheral blood were analyzed by FACS analysis over time (at day 0, 1, 3).

[7] = system: senescent angiogenic stem cells; experiment: nitric oxide and reactive oxygen species in senescent angiogenic stem cells; format: cell-based; conditions: senescent angiogenic stem cells treated with TUDCA
[8] = system: leukocytes, lymphocytes, monocytes, and granulocytes in peripheral blood; experiment: complete blood cell (CBC) count; format: in vivo; conditions: oral, mice, 10 mg/kg for 3 days
Description: as §1

[9] = system: ICAM, Jagged1, N-cadherin, LFA1, and c-kit; experiment: mRNA expression of cell adhesion factors in CD34+ cells; format: cell-based; conditions: TUDCA 50 μM for 5 hours
Description: Based thereon, a change in mRNA expression of cell adhesion factors involved in cell adhesion was confirmed. After treating CD34^+ cells with TUDCA (50 μM) for 5 hours, mRNA expression of ICAM, Jagged′, N-cadherin, LFA1, and c-kit, which are involved in cell adhesion, was confirmed.

[10] = system: angiogenic stem cells (CD34+/Sca1+) in peripheral blood; experiment: FACS analysis of angiogenic stem cells in peripheral blood after oral administration; format: in vivo; conditions: 10 mg/kg oral, C57BL/6 mice, day 0, 1, 3
Description: as §4

[11] = system: CD44, N-cadherin, c-kit, and LFA1 in HAECs; experiment: mRNA expression levels of cell adhesion molecules in HAECs; format: cell-based, Human
Description: (§5) Further, as the first step of integration with vascular endothelial cells is cell adhesion, mRNA expression levels of cell adhesion molecules in HAECs and EPCs were examined.

angiogenic stem cells [12] = experiment: proliferation capability of angiogenic stem cells; format: cell-based; conditions: 50 μM of TUDCA (tested 0, 10, 50, 100 μM)
Description: as §2

CD34+ HSCs = experiment: EPC colony forming capability of CD34+ HSCs (differentiation into the EPC lineage); format: cell-based
Description: as §3

[13] = system: Human arterial endothelial cells (HAECs) mixed with angiogenic stem cells; experiment: tube formation assay of HAECs mixed with angiogenic stem cells; format: cell-based; conditions: TUDCA 50 μM
Description: It is the most significant process in the vascular recovery mechanism that angiogenic stem cells mobilized from bone marrow are integrated with vascular endothelial cells preexisting in damaged tissue, to generate new blood vessels through interaction. Human arterial endothelial cells (HAECs) were mixed with angiogenic stem cells, and then the integration capability between the two cells was examined by tube formation assay.

hindlimb ischemic tissue [14] = experiment: mouse hindlimb ischemia model, oral TUDCA; format: in vivo; conditions: 20 mg/kg oral every day
Description: TUDCA was applied to mouse disease models based on the above experiments, to verify the effects. Mouse hindlimb ischemia model, which is one of the disease animals, for verifying vascular repair capability was prepared. Thereafter, 20 mg/kg of TUDCA was orally administered to mice every day, to confirm vascular repair capability over time. […] In order to confirm whether angiogenic stem cells were mobilized by TUDCA to hindlimb ischemic tissue, hindlimb ischemic tissue was removed 3 days after the preparation of the hindlimb ischemia models, and flow cytometry was performed using an angiogenic stem cell marker. As a result, it was confirmed that the number of angiogenic stem cells in ischemic tissue increased in the group to which TUDCA was orally administered (FIG. 7c). In order to confirm angiogenesis by TUDCA, hindlimb ischemic tissue was removed 14 days after the preparation of the hindlimb ischemia models and subjected to immunofluorescent staining, to verify capillary density and arteriole density.

[15] = system: senescent angiogenic stem cells (passages 13 to 16); experiment: β-galactosidase staining of senescent angiogenic stem cells; format: cell-based
Description: In order to use stem cells as a stem cell therapy product, it is important to obtain a sufficient number of stem cells in a healthy state. However, upon in vitro expansion of stem cells for obtaining a sufficient number of stem cells, repeated passages cause senescence of stem cells. In order to resolve this problem, angiogenic stem cells subjected to repeated passages (passages 13 to 16) were treated with TUDCA, to verify senescence inhibition. Senescent angiogenic stem cells were treated with TUDCA and subjected to β-galactosidase staining capable of confirming senescence, to confirm senescence recovery.

angiogenic stem cells [16] = experiment: tube-forming capability of angiogenic stem cells; format: cell-based; conditions: TUDCA 0, 10, 50, 100 μM; concentration-dependent
Description: as §2

[17] = system: CD44, Jagged-1, N-cadherin, VLA5, CXCR4, c-kit, and Notch in EPCs; experiment: mRNA expression levels of cell adhesion molecules in EPCs; format: cell-based
Description: as §5

[18] = day 14, immunofluorescent staining

- distribution of granulocytes involved in inflammatory response [1]: significantly decreased
- number of granulocytes involved in inflammatory response [8]: significantly decreased
SMILES: C[C@H](CCC(=O)NCCS(=O)(=O)O)[C@H]1CC[C@H]2[C@@H]3[C@@H](O)C[C@@H]4C[C@H](O)CC[C@]4(C)[C@H]3CC[C@]12C [TUDCA, tauroursodeoxycholic acid]
- colony forming capability (EPC-CFA) [1]: significantly increased
- expression of angiogenic stem cell markers CD34, CD31, and c-kit [1]: significantly increased
- blood flow (LDPI assay) (hindlimb ischemic tissue [2]): significantly improved
- number of angiogenic stem cells derived from bone marrow into ischemic tissue (hindlimb ischemic tissue [2]; day 3, GFP/c-kit/ILB4 staining): significantly increased
- number of arterioles (hindlimb ischemic tissue [2]; day 14): significantly increased
- number of capillaries (hindlimb ischemic tissue [2]; day 14): significantly increased
- number of bone marrow-derived angiogenic stem cells differentiated into vascular endothelial cells (hindlimb ischemic tissue [2]; day 14, GFP/VEGFR/ILB4 staining): significantly increased
- number of CD34+ cells adhered to the stromal cells [3]: significantly decreased
- number of CD34+ cells dissociated from the stromal cells [3]: significantly increased
- number of angiogenic stem cells (Hill's assay) [4]: increased
- infiltration capability of angiogenic stem cells (angiogenic stem cells [5]): most significantly increased
- Akt phosphorylation (Akt): increased
- migration capability of CD34+ cells [6]: significantly increased
- expression amount of nitric oxide [7]: significantly increased
- expression amount of reactive oxygen species [7]: significantly decreased
- mRNA expression of cell adhesion factors (ICAM, Jagged1, N-cadherin, LFA1, c-kit) [9]: significantly decreased
- number of angiogenic stem cells (CD34+/Sca1+) in peripheral blood [10]: significantly increased
- mRNA expression levels of CD44, N-cadherin, c-kit, and LFA1 [11]: significantly increased
- proliferation capability of angiogenic stem cells (angiogenic stem cells [12]): most significantly increased
- EPC colony forming capability of CD34+ HSCs (CD34+ HSCs): enhanced
- tube formation capability [13]: significantly increased
- blood flow improvement (LDPI assay) (hindlimb ischemic tissue [14]): significantly increased
- number of angiogenic stem cells in ischemic tissue (flow cytometry) (hindlimb ischemic tissue [14]; day 3): increased
- number of arterioles (hindlimb ischemic tissue [14]; [18]): significantly increased
- number of capillaries (hindlimb ischemic tissue [14]; [18]): significantly increased
- number of β-galactosidase positive cells [15]: significantly increased
- tube-forming capability of angiogenic stem cells (angiogenic stem cells [16]): significantly increased
- mRNA expression levels of CD44, Jagged-1, N-cadherin, VLA5, CXCR4, c-kit, and Notch [17]: significantly increased
